The text below walks through data of ChEMBL document CHEMBL4346738, “Biological evaluation of molecules of the azaBINOL class as antiviral agents: Inhibition of HIV-1 RNase H activity by 7-isopropoxy-8-(naphth-1-yl)quinoline” (Bioorg Med Chem, 2019).

The source made the active and inactive calls. No cut-off for these calls is given here.

The test system of data set [1] is Human immunodeficiency virus 1. The data set can be described thus: Antiviral activity against HIV1 HXB2 pseudovirus infected in human TZM-bl cells assessed as inhibition of viral infection incubated for 20 mins prior to infection and measured after 48 hrs by bright Glo-luciferase reporter gene assay. It counts as functional, organism-based, M:B_HXB2R. (A reporter such as luciferase makes a cellular process visible.)

Data set [2] relates to Human immunodeficiency virus 1. The data set can be described thus: Antiviral activity against HIV1 YU2 pseudovirus infected in human TZM-bl cells assessed as inhibition of viral infection incubated for 20 mins prior to infection and measured after 48 hrs post infection by bright Glo-luciferase reporter gene assay. It counts as functional, organism-based, isolate YU2.
For data set [3], the system named is Human immunodeficiency virus 1. The data set can be described thus: Antiviral activity against HIV1 89.6 pseudovirus infected in human TZM-bl cells assessed as inhibition of viral infection incubated for 20 mins prior to infection and measured after 48 hrs post infection by bright Glo-luciferase reporter gene assay. It counts as functional, organism-based, M:B_89.6.

For data set [4], the system named is TZM. In words: (§1) Cytotoxicity against human TZM-bl cells assessed as reduction in cell viability after 48 hrs by MTT assay. It counts as cell-based. As to conditions: tzm, 48 h. In general terms: Tetrazolium dyes change colour on reduction, which living cells bring about.
The subject of data set [5] is Human immunodeficiency virus 1. The data set can be described thus: Antiviral activity against HIV1 LAI infected in human LC5 cells expressing DsRed1 reporter gene assessed as inhibition of viral infection measured after 48 hrs post infection by reporter gene based […] assay. It counts as functional, organism-based.
A short description of data set [6]: Cytotoxicity against human LC5 cells assessed as reduction in cell viability incubated for 48 hrs by resazurin dye-based assay. The settings on record: for CC50 at 48 h: LC5 cells. A general note: The colour change of resazurin is a common sign of viable cells or microbes.
The test system of data set [7] is Human immunodeficiency virus 1. The data set can be described thus: Antiviral activity against HIV1 HXB2 pseudovirus infected in human TZM-bl cells assessed as inhibition of viral infection up to 200 uM incubated for 20 mins prior to infection and measured after 48 hrs post infection by bright Glo-luciferase reporter gene assay. The data set is classed as functional, organism-based. As to conditions: M:B_HXB2R.

For data set [8], the system named is Human immunodeficiency virus 1. In words: Antiviral activity against HIV1 YU2 pseudovirus infected in human TZM-bl cells assessed as inhibition of viral infection up to 200 uM incubated for 20 mins prior to infection and measured after 48 hrs post infection by bright Glo-luciferase reporter gene assay. As to conditions: isolate YU2. The data set is classed as functional, organism-based.

Data set [9] deals with Human immunodeficiency virus 1. The data set can be described thus: Antiviral activity against HIV1 89.6 pseudovirus infected in human TZM-bl cells assessed as inhibition of viral infection up to 200 uM incubated for 20 mins prior to infection and measured after 48 hrs post infection by bright Glo-luciferase reporter gene assay. It counts as functional, organism-based. The settings on record: M:B_89.6.

Data set [10] has as its system Human immunodeficiency virus 1. The data set can be described thus: Antiviral activity against HIV1 LAI infected in human LC5 cells expressing DsRed1 reporter gene assessed as inhibition of viral infection up to 200 uM measured after 48 hrs post infection by reporter gene based […] assay. It counts as functional, organism-based.
Data set [11] can be described thus: Half life of the compound in methyl alcohol assessed as compound racemization at 24 degC. The data set is classed as physicochemical.
Data set [12] addresses Human immunodeficiency virus type 1 integrase (Human immunodeficiency virus 1, UniProt Q7ZJM1). The data set can be described thus: Inhibition of recombinant HIV1 integrase strand transfer activity using biotin-labeled double-stranded HIV1 LTR U5 donor DNA substrate pretreated for 5 mins followed by substrate addition and measured after 30 mins by ELISA.
Data set [13] addresses T1, Human immunodeficiency virus type 1 reverse transcriptase (Human immunodeficiency virus 1, UniProt Q72547). The data set can be described thus: Inhibition of HIV1 Reverse transcriptase polymerase assessed as decrease in digoxigenin and biotin-dUTP incorporation into DNA using poly(A)/oligo(dT)15 as template/primer by ELISA.
Data set [14] has as its target T1, Human immunodeficiency virus type 1 reverse transcriptase. In words: Inhibition of HIV1 reverse transcriptase RNase H using 18-nucleotide 3'-fluorescein-labeled RNA/5'-dabcyl-labeled DNA hybrid as substrate measured after 1 hr by FRET based assay.
Data set [15] is described as follows: Inhibition of Escherichia coli reverse transcriptase RNase H using 18-nucleotide 3'-fluorescein-labeled RNA/5'-dabcyl-labeled DNA hybrid as substrate measured after 1 hr by FRET based assay.
Data set [16] addresses Reverse transcriptase (Moloney murine leukemia virus, UniProt Q83371). The data set can be described thus: Inhibition of Murine leukemia virus reverse transcriptase RNase H using 18-nucleotide 3'-fluorescein-labeled RNA/5'-dabcyl-labeled DNA hybrid as substrate measured after 1 hr by FRET based assay.
Data set [17] in a line: as §1. The data set is classed as cell-based. As to conditions: TZM-bl cells.
Data set [18] in a line: Selectivity index, ratio of CC50 for human TZM-bl cells to IC50 for antiviral activity against HIV1 89.6 pseudovirus infected in human TZM-bl cells. As to conditions: read-out: Ratio CC50/IC50. The data set is classed as toxicity, cell-based.
A short description of data set [19]: Selectivity index, ratio of CC50 for human LC5 cells to IC50 for antiviral activity against HIV1 LAI infected in human LC5 cells. The settings on record: read-out: Ratio CC50/IC50. The data set is classed as toxicity, cell-based.
The subject of data set [20] is Human immunodeficiency virus 1. In words: Antiviral activity against HIV1 V13-03413B infected in human LC5 cells expressing DsRed1 reporter gene assessed as inhibition of viral infection measured after 48 hrs post infection by reporter gene based […] assay. The data set is classed as functional, organism-based. The settings on record: Human immunodeficiency virus 1, V13-03413B.

Data set [21] is described as follows: Inhibition of Avian myeloblastosis virus reverse transcriptase RNase H using 18-nucleotide 3'-fluorescein-labeled RNA/5'-dabcyl-labeled DNA hybrid as substrate measured after 1 hr by FRET based assay.
A short description of data set [22]: Compound aggregation in D2O/1% DMSO-d6 solvent assessed as number of resonance at 12 to 200 uM by 1H NMR dilution analysis. The data set is classed as physicochemical.
The nature of data set [23]: Compound aggregation in D2O/1% DMSO-d6 solvent assessed as peak shape at 12 to 200 uM by 1H NMR dilution analysis. The data set is classed as physicochemical.
Data set [24] in a line: Compound aggregation in D2O/1% DMSO-d6 solvent assessed as change in chemical shift at 12 to 200 uM by 1H NMR dilution analysis. The data set is classed as physicochemical.
The nature of data set [25]: Metal chelating activity assessed as compound-Mg2+ complex formation in presence of varying concentrations of Mg2+ at 100 uM by UV-vis spectrometry. The data set is classed as ADME.
Data set [26] deals with T1, Human immunodeficiency virus type 1 reverse transcriptase. In words: Binding affinity to recombinant wild-type full length HIV1 reverse transcriptase p66/p51 expressed in Escherichia coli by biolayer interferometry.
Data set [27] has as its system Human immunodeficiency virus 1. The data set can be described thus: Selectivity ratio of IC50 for HIV1 V13-03413B infected in human LC5 cells to IC50 for HIV1 LAI infected in human LC5 cells. It counts as functional.
The nature of data set [28]: Selectivity index, ratio of CC50 for human TZM-bl cells to IC50 for antiviral activity against HIV1 HXB2 pseudovirus infected in human TZM-bl cells. As to conditions: read-out: Ratio CC50/IC50. It counts as toxicity, cell-based.
Data set [29] has as its system Human immunodeficiency virus 1. The data set can be described thus: Antiviral activity against HIV1 HXB2 pseudovirus infected in human TZM-bl cells assessed as inhibition of viral infection at 20 nM measured after 48 hrs post infection by bright Glo-luciferase reporter gene assay relative to control. It counts as functional. The settings on record: Human immunodeficiency virus 1, M:B_HXB2R.

For data set [30], the system named is Human immunodeficiency virus 1. The data set can be described thus: Antiviral activity against HIV1 YU2 pseudovirus infected in human TZM-bl cells assessed as inhibition of viral infection at 20 nM measured after 48 hrs post infection by bright Glo-luciferase reporter gene assay relative to control. It counts as functional. The settings on record: Human immunodeficiency virus 1, isolate YU2, TZM-bl.

The subject of data set [31] is Human immunodeficiency virus 1. In words: Antiviral activity against HIV1 89.6 pseudovirus infected in human TZM-bl cells assessed as inhibition of viral infection at 20 nM measured after 48 hrs post infection by bright Glo-luciferase reporter gene assay relative to control. The data set is classed as functional. The settings on record: Human immunodeficiency virus 1, M:B_89.6, TZM-bl.

[32] abbreviates: Human immunodeficiency virus 1, M:B_HXB2R, TZM-bl, read-out: IC50.
Where [33] appears, read: Human immunodeficiency virus 1, isolate YU2, TZM-bl, read-out: IC50.
[34] abbreviates: Human immunodeficiency virus 1, M:B_89.6, TZM-bl, read-out: IC50.
Setting [35] is: Human immunodeficiency virus 1, LAI, 48 h, read-out: IC50.

Human immunodeficiency virus type 1 integrase, sequence (Q7ZJM1 whole entry): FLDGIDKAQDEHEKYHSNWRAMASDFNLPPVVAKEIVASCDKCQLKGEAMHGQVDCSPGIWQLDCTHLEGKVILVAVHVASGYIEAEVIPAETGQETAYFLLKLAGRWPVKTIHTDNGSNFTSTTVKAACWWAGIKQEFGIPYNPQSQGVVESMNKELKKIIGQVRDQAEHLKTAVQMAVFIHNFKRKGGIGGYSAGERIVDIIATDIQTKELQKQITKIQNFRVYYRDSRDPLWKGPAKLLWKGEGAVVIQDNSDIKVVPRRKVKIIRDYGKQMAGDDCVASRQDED

A word on the IC50: it is the midpoint of a concentration-inhibition curve. Broadly, the CC50 is the concentration giving 50% cytotoxicity. In the case of `CCN(CC)C(=O)Oc1ccc2cccnc2c1-c1cccc2cccnc12`, the 50% inhibitory concentration (IC50) result in data set [1], in [2], in [3] and in data set [5] was “Not Active” in each case. Further, the CC50 result in data set [4] is “Non-Toxic”. Also, the CC50 at 48 h in data set [6] worked out at 383 µM. Also, the outcome in [7], in data set [8], in [9] and in data set [10] was inactive.

As a reminder, the half-life is the time in which the quantity being followed falls by half. As for `Oc1ccc2ccccc2c1-c1cccc2cccnc12`, the half-life in data set [11] is 89 h.

Consider `CC(C)Oc1ccc2cccnc2c1-c1cccc2cccnc12`, for which the half-maximal inhibitory concentration (IC50) result was “Not Active” in data set [1]; “Not Active” in data set [2]; “Not Active” in [3]; “Not Active” in [5]; greater than 100 µM in data set [12]; greater than 100 µM in data set [13]. Moreover, the 50% inhibitory concentration (IC50) in data set [14], in data set [15] and in [16] was greater than 100 µM in each case. The CC50 entry in [4] and in [6] (48 h) was “Non-Toxic” in each case. The outcome in data set [7], in data set [8], in [9] and in data set [10] was inactive.

By Kd is commonly meant a measure of binding affinity in units of concentration. On to `CC(C)Oc1ccc2cccnc2c1-c1cccc2ccccc12`, for which the IC50 was 6.7 µM in data set [1] (setting [32]); 8.9 µM in [2] (setting [33]); 4.7 µM in [3] (setting [34]); 6.7 µM in data set [5] (setting [35]); 34.2 µM in data set [20]; greater than 100 µM in data set [12]. Moreover, the IC50 in [13] is greater than 100 µM; in data set [14] it was 46.8 µM; in data set [15] it was 44.3 µM; in [16], greater than 100 µM; in data set [21] it was greater than 100 µM. Further, the cytotoxic concentration (CC50) at 48 h stood at 68.5 µM in data set [17] and 86.5 µM in [6]. Further, the results for the selectivity ratio in [18] and in data set [19] were 14.6 and 11.4, respectively. For the same compound, the Activity result in data set [22], in data set [23], in [24] and in data set [25] was “Not Active” throughout. Further, the dissociation constant (Kd) in data set [26] worked out at 38 µM. Also, the “Ratio IC50” value in data set [27] stood at 5.

Take `CC(C)Oc1ccc2ccccc2c1-c1cccc2cccnc12`: the IC50 was greater than 100 µM in data set [1] (setting [32]), greater than 100 µM in data set [2] (setting [33]), greater than 100 µM in data set [3] (setting [34]) and 39.5 µM in [5] (setting [35]). Moreover, the half-maximal cytotoxic concentration (CC50) at 48 h is greater than 100 µM in data set [17] and 145 µM in [6]. Further, the selectivity ratio in [19] turned out to be 3.6.

Regarding `Oc1ccc2cccnc2c1-c1cccc2ccccc12`, in data set [11], the half-life was 120 h.

As for `Cc1cc(/C=C/C#N)cc(C)c1Nc1ccnc(Nc2ccc(C#N)cc2)n1` [RILPIVIRINE], the IC50 in [14], in data set [15] and in data set [16] was greater than 10 µM each time.

For the compound `O=C1Nc2ccc(Cl)cc2[C@@](C#CC2CC2)(C(F)(F)F)O1` [EFAVIRENZ], the 50% cytotoxic concentration (CC50) entry in data set [4] is given as “Non-Toxic”.

In the case of `CCN(CC)C(=O)Oc1ccc2cccnc2c1-c1cccc2ccccc12`, the IC50 was 61.4 µM in data set [1] (setting [32]), 77.6 µM in data set [2] (setting [33]), 56.6 µM in data set [3] (setting [34]) and 24.1 µM in [5] (setting [35]). Also, the 50% cytotoxic concentration (CC50) at 48 h in [17] turned out to be 95 µM; in [6], 51.9 µM. Further, the selectivity ratio in [18] came to 1.7; in [19], 2.2.

In data set [14], `NC(=O)c1c(N)sc2c1CCCCC2` showed an IC50 of 28.1 µM.

With `CCN(CC)C(=O)Oc1ccc2ccccc2c1-c1cccc2cccnc12`, the 50% inhibitory concentration (IC50) in data set [1] (setting [32]) stood at 12.6 µM; in [2] (setting [33]), 14 µM; in data set [3] (setting [34]), 16.8 µM; in data set [5] (setting [35]), 50.1 µM. Besides, the 50% cytotoxic concentration (CC50) at 48 h stood at 69.3 µM in [17] and 71.4 µM in data set [6]. For the same compound, the results for the selectivity ratio in data set [28] and in [19] were 5.5 and 1.4, respectively.

For orientation: inhibition means the change of the read-out against control, counted positive when it falls. For `COc1cnc(-n2cnc(C)n2)c2[nH]cc(C(=O)C(=O)N3CCN(C(=O)c4ccccc4)CC3)c12`, the inhibition at 0.02 µM in data set [29], in [30] and in data set [31] was 100% each time.
